# Data taken from publication PMC3265250 (Chemotherapy Research and Practice, 2011).
# Positions of bridges follow the written chain, without caps; N, C: chain ends. Residues, ends and D or L forms follow the SMILES beside them.
# Experiments:
# S. aureus ATCC 6538P = assay: MIC, microbroth dilution, referential strain ATCC 6538P; format: cell-based, Staphylococcus aureus; settings: ATCC 6538P; microbroth dilution, MHB II, 5 × 10^5 CFU/mL, 18 h at 37°C, triplicate
# Experimental: (§1) A total number of 24 SA strains were obtained from patients with erythrodermia and 3 reference SA ones from the American Type Culture Collection: 6538P ATCC, 9144 ATCC, and 25923 ATCC (Institute of Experimental Therapy, Wroclaw, Poland). […] Polypropylene 96-well plates (Sigma-Aldrich) were incubated for 18 h at 37°C. MIC was taken as the lowest drug concentration at which a noticeable growth was inhibited. […] The experiments were performed in triplicate.
# S. aureus ATCC 9144 = assay: MIC, microbroth dilution, referential strain ATCC 9144; format: cell-based, Staphylococcus aureus; settings: ATCC 9144; microbroth dilution, MHB II, 5 × 10^5 CFU/mL, 18 h at 37°C, triplicate
# S. aureus ATCC 25923 = assay: MIC, microbroth dilution, referential strain ATCC 25923; format: cell-based, Staphylococcus aureus; settings: ATCC 25923; microbroth dilution, MHB II, 5 × 10^5 CFU/mL, 18 h at 37°C, triplicate
# Experimental: as §1
# [1] = test system: Superantigen negative S. aureus (10); settings: for MIC 50% / MIC 90% / MIC Range / MBC Range: superantigen negative clinical isolates (10), triplicate; for MIC 50% / MIC 90% / MIC Range: microbroth dilution, MHB II, 5 × 10^5 CFU/mL, 18 h at 37°C; for MBC Range: more than 99.9% reduction of the initial inoculums
# [2] = test system: Superantigen positive S. aureus (14); settings: for MIC 50% / MIC 90% / MIC Range / MBC Range: superantigen positive clinical isolates (14), triplicate; for MIC 50% / MIC 90% / MIC Range: microbroth dilution, MHB II, 5 × 10^5 CFU/mL, 18 h at 37°C; for MBC Range: more than 99.9% reduction of the initial inoculums
# clinical isolates of SA = settings: 18 h
Structure (SMILES),MIC (S. aureus ATCC 6538P),MIC (S. aureus ATCC 9144),MIC (S. aureus ATCC 25923),MBC 50% [1],MBC 90% [1],MIC 50% [1],MIC 90% [1],MIC Range [1],MBC Range [1],MBC 50% [2],MBC 90% [2],MIC 50% [2],MIC 90% [2],MIC Range [2],MBC Range [2],MICs values (range) (clinical isolates of SA),MIC values (range) (clinical isolates of SA)
"CCCCCCCCCC(=O)N[C@@H](Cc1c[nH]c2ccccc12)C(=O)N[C@H](CC(N)=O)C(=O)N[C@@H](CC(=O)O)C(=O)N[C@@H]1C(=O)NCC(=O)N[C@@H](CCCN)C(=O)N[C@@H](CC(=O)O)C(=O)N[C@H](C)C(=O)N[C@@H](CC(=O)O)C(=O)NCC(=O)N[C@H](CO)C(=O)N[C@@H]([C@H](C)CC(=O)O)C(=O)N[C@@H](CC(=O)c2ccccc2N)C(=O)O[C@@H]1C [Daptomycin, daptomycin]",2 µg/mL,2 µg/mL,2 µg/mL,2 µg/mL,2 µg/mL,1 µg/mL,2 µg/mL,1 to 4 µg/mL,1 to 4 µg/mL,2 µg/mL,4 µg/mL,1 µg/mL,2 µg/mL,1 to 4 µg/mL,1 to 4 µg/mL,1 to 4 mg/L,–
"CC[C@H](C)[C@@H]1NC(=O)CNC(=O)[C@H](CCCNC(=N)N)NC(=O)[C@H](Cc2ccc(O)cc2)NC(=O)[C@@H]2CSSC[C@H](NC1=O)C(=O)N[C@@H](Cc1ccc(O)cc1)C(=O)N[C@@H](CCCNC(=N)N)C(=O)N[C@@H](CCCCN)C(=O)N[C@H](C(=O)N[C@@H](CCCNC(=N)N)C(N)=O)CSSC[C@H](NC(=O)[C@H](Cc1c[nH]c3ccccc13)NC(=O)[C@@H](N)CCCCN)C(=O)N[C@@H](Cc1ccccc1)C(=O)N[C@@H](CCCNC(=N)N)C(=O)N[C@@H](C(C)C)C(=O)N2 [Tachyplesin 3, tachyplesin 3] (H-KWCFRVCYRGICYRKCR-NH2; disulfide 3-16, 7-12 (inferred); N-terminus and C-terminus assumed)",–,–,–,2 µg/mL,4 µg/mL,–,–,–,–,2 µg/mL,4 µg/mL,–,–,–,–,–,1 to 8 µg/mL
"CCCCCCCCCCCCCCCC(=O)N[C@@H](CCCCN)C(=O)N[C@@H](CCCCN)C(N)=O [Lipopeptide, Pal-KK-NH2]",2 µg/mL,2 µg/mL,4 µg/mL,4 µg/mL,8 µg/mL,2 µg/mL,4 µg/mL,1 to 8 µg/mL,2 to 8 µg/mL,4 µg/mL,8 µg/mL,2 µg/mL,4 µg/mL,1 to 8 µg/mL,2 to 8 µg/mL,–,1 to 8 µg/mL
"CC(C)C[C@H](NC(=O)[C@H](CCCNC(=N)N)NC(=O)CNC(=O)CNC(=O)[C@@H](N)CCCNC(=N)N)C(=O)N[C@H]1CSSC[C@@H](C(=O)N[C@H](C(=O)NCC(=O)N[C@@H](CCCNC(=N)N)C(N)=O)C(C)C)NC(=O)[C@H](C(C)C)NC(=O)[C@@H]2CSSC[C@H](NC(=O)[C@H](Cc3ccc(O)cc3)NC1=O)C(=O)N[C@@H](CCCNC(=N)N)C(=O)N[C@@H](CCCNC(=N)N)C(=O)N[C@@H](CCCNC(=N)N)C(=O)N[C@@H](Cc1ccccc1)C(=O)N2 [Protegrin 1, protegrin 1]",4 µg/mL,2 µg/mL,4 µg/mL,4 µg/mL,8 µg/mL,2 µg/mL,4 µg/mL,1 to 4 µg/mL,2 to 8 µg/mL,4 µg/mL,8 µg/mL,2 µg/mL,4 µg/mL,1 to 4 µg/mL,2 to 8 µg/mL,–,1 to 8 µg/mL
